Assay results taken from PMC8872768, “Discovery of ultrafast myosin, its amino acid sequence, and structural features” (Proceedings of the National Academy of Sciences of the …, 2022).

Tests used:
CbXI-3 MD = biological target: T1, CbXI-3 MD (Chara braunii, UniProt A0A388L5N7); assay: actin-activated Mg2+-ATPase, phosphate release; format: biochemical; settings: 2 mM ATP, F-actin 0.125-4 mg/mL, 25 mM KCl, 4 mM MgCl2, pH 7.4, 25 C
T1 construct: gene CBR_g24025; motor domain only, no IQ motifs; baculovirus / insect cells
T1 sequence (A0A388L5N7 1-740 limits assumed): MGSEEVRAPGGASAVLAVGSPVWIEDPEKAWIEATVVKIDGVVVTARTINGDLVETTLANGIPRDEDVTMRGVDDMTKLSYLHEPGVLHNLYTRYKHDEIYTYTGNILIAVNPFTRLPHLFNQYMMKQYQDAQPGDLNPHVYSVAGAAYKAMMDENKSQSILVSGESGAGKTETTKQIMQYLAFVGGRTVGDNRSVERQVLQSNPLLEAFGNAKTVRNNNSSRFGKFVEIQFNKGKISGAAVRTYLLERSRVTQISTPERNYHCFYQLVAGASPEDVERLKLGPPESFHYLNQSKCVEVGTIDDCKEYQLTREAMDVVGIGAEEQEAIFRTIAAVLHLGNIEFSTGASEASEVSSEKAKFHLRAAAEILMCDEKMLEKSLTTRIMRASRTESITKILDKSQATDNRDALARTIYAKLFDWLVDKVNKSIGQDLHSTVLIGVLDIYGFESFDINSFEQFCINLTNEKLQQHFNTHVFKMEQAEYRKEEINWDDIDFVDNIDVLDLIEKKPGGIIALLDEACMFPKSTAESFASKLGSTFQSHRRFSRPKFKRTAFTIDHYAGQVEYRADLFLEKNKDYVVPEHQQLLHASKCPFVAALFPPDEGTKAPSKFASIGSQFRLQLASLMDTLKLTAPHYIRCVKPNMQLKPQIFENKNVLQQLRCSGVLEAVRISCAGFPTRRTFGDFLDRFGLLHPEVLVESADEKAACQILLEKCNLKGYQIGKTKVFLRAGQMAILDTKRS

CbXI-2 MD = biological target: T2, CbXI-2 MD (Chara braunii, UniProt A0A388M2Q8); assay: actin-activated Mg2+-ATPase, phosphate release; format: biochemical; settings: 2 mM ATP, F-actin 0.125-4 mg/mL, 25 mM KCl, 4 mM MgCl2, pH 7.4, 25 C
T2 construct: gene CBR_g48390; motor domain only, no IQ motifs; baculovirus / insect cells
T2 sequence (A0A388M2Q8 1-744 limits assumed): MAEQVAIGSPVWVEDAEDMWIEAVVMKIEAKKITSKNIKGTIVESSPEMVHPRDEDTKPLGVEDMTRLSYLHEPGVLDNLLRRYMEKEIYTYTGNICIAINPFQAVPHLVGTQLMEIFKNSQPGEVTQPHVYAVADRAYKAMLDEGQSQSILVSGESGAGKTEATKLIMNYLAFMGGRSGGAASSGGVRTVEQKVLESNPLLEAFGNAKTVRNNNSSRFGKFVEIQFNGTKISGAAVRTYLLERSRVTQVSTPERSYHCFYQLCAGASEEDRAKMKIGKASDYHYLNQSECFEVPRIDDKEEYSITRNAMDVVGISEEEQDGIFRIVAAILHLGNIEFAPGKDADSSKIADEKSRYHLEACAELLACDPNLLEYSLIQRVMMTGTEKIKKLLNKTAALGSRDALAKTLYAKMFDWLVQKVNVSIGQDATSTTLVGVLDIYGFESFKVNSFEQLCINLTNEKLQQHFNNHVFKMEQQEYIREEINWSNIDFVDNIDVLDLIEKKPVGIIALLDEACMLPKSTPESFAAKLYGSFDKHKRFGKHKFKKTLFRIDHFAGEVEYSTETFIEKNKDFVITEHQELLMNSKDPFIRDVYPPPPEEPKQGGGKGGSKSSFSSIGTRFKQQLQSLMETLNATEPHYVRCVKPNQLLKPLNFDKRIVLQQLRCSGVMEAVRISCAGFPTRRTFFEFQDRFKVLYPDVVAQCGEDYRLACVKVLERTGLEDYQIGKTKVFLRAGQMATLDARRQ

Q: How did the “actin-activated Mg2+-ATPase, phosphate release” value (CbXI-3 MD) turn out when `Nc1ncnc2c1ncn2[C@@H]1O[C@H](COP(=O)(O)OP(=O)(O)OP(=O)(O)O)[C@@H](O)[C@H]1O` [ATP] was run?
A: The value was “The ATPase activities of CbXI-1, CbXI-2, CbXI-3, and CbXI-4 MDs were plotted”.

Q: What about the “actin-activated Mg2+-ATPase, phosphate release” value (CbXI-2 MD) of the same compound?
A: Its value is “The ATPase activities of CbXI-1, CbXI-2, CbXI-3, and CbXI-4 MDs were plotted”.
